# From article PMC4962987, “Identification of Chalcones as Fasciola hepatica Cathepsin L Inhibitors Using a Comprehensive Experimental and Computational Approach” (PLoS Neglected Tropical Diseases, 2016)
# Experiments:
# FhCL1 [1] = target: T1, FhCL1 (Fasciola hepatica, UniProt Q7JNQ9); assay: fluorogenic Z-VLK-AMC enzyme assay, % inhibition at […]; assay type: biochemical
# T1 construct: gene CL1
# FhCL1 [2] = target: T2, FhCL1 (Fasciola hepatica, UniProt Q7JNQ9); assay: biochemical; parameters: fluorogenic peptide-AMC hydrolysis (Z-VLK-AMC FhCL1, Tos-GPR-AMC FhCL3), initial rates, 5 min preincubation
# T2 construct: gene CL1
# T2 sequence (Q7JNQ9 108-326): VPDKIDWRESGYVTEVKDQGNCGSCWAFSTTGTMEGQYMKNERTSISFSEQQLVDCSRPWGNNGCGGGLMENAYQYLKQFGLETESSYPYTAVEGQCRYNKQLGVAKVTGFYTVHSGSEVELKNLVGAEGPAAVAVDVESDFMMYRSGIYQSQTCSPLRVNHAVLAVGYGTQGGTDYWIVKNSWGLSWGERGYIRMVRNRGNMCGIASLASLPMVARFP
# Method: (§1) A 10 mM stock of each evaluated compound was prepared in dimethylsulfoxide (DMSO). Enzyme activity assays were conducted to evaluate the inhibitory capacity of the different compounds. FhCL1 and FhCL3 were used at nanomolar concentrations to measure initial rates during the first 10 min of the assay and compounds were tested at a moderate fixed dose of 10 μM. Briefly, each enzyme and compound were preincubated 5 minutes in a 96-well plate in 0.1M sodium phosphate buffer pH 6, 1 mM DTT and 1 mM EDTA at room temperature. The reaction was initiated by the addition of 20 μM of substrate, a synthetic peptide conjugated to the fluorophore 7-amino-4-methylcoumarin (AMC). Enzyme activity was measured by the increase in AMC fluorescence as peptide substrates were hydrolyzed (Z-VLK-AMC for FhCL1 and Tos-GPR-AMC for FhCL3) at an excitation wavelength of 340 nm and emission wavelength of 440 nm using a spectrofluorometer (Varioskan Thermo). Enzyme activity was expressed as RFU/s (relative fluorescence units of AMC released per unit of time). Each compound was tested in duplicate. A progress curve without enzyme was performed to control for non-catalyzed reactions between substrates and inhibitors and a spectrum from 300 to 450 nm wavelength was done for each inhibitor to verify that none of the compounds has optical activity in the measurement range. The percentage of enzyme inhibition was calculated as: 100 - (vi/vo) x 100, where vi and vo correspond to the initial rate of AMC fluorescence increase (RFU/s) with and without inhibitor, respectively. We evaluated forty flavonoids from three structural clusters of our own chemistry library as inhibitors of FhCL1 and FhCL3. Cluster I contained twenty-six chalcones modified in ring B (C1-C26, Fig 1A), cluster II contained naphtolchalcone derivatives (C27-C35, Fig 1B) and cluster III was composed of flavones modified in ring B (C36-C40, Fig 1B). Initially, we screened the compounds at a low concentration of 10 μM measuring initial rates during the first 10 min, finding activities ranging from 0% to 75% enzyme inhibition (Fig 1).
# FhCL3 [3] = target: T3, FhCL3 (Fasciola hepatica, UniProt B3TM67); assay: biochemical; parameters: fluorogenic peptide-AMC hydrolysis (Z-VLK-AMC FhCL1, Tos-GPR-AMC FhCL3), initial rates, 5 min preincubation; conditions: read-out: % inh. FhCL3
# T3 construct: gene CL3
# T3 sequence (B3TM67 88-306): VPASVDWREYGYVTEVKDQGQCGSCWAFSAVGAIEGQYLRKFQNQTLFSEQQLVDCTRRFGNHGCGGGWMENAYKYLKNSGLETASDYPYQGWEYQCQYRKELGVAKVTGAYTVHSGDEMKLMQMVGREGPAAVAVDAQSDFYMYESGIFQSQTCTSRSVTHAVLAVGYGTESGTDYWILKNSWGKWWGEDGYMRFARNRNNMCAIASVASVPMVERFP
# Method: as §1
# FhCL1 [4] = target: T1, FhCL1; assay: biochemical; parameters: fluorogenic peptide-AMC hydrolysis (Z-VLK-AMC FhCL1, Tos-GPR-AMC FhCL3), initial rates, 5 min preincubation; remark: listed apart in the source
# Method: as §1
# FhCL3 [5] = target: T4, FhCL3 (Fasciola hepatica, UniProt B3TM67); assay: biochemical; parameters: fluorogenic peptide-AMC hydrolysis (Z-VLK-AMC FhCL1, Tos-GPR-AMC FhCL3), initial rates, 5 min preincubation; conditions: read-out: % inh. FhCL3; remark: listed apart in the source
# T4 construct: gene CL3
# Method: as §1
# FhCL3 [6] = target: T4, FhCL3; assay: fluorogenic Tos-GPR-AMC enzyme assay, % inhibition at […]; assay type: biochemical
SMILES,inhibition at 10 µM (FhCL1 [2]) [%],inhibition at 10 µM (FhCL3 [3]) [%],further results
O=C(/C=C/c1ccc(Cl)cc1)c1ccccc1O [C10],,,inhibition at 10 µM (FhCL1 [1]): 63%
O=C(/C=C/c1ccccn1)c1ccccc1O [C22],54 ± 7,0,
O=C(/C=C/c1ccco1)c1ccccc1O [C23],57 ± 8,4 ± 10,
O=C(/C=C/c1cccs1)c1ccccc1O [C24],52 ± 5,9 ± 11,
O=C(/C=C/c1ccccc1)c1ccc2ccccc2c1 [C27],,13 ± 4,inhibition at 10 µM (FhCL1 [1]): 65%
O=C(CC(CC(=O)c1ccccc1)c1cccc2ccccc12)c1ccccc1 [C29],17 ± 9,27 ± 2,
O=C(/C=C/c1ccc2ccccc2c1)c1ccccc1 [C30],62 ± 2,38 ± 7,
O=C(/C=C/c1cccc2ccccc12)c1c(O)ccc2ccccc12 [C34],,,inhibition at 10 µM (FhCL1 [4]): 75 ± 4%; inhibition at 10 µM (FhCL3 [5]): 65 ± 6%
O=C(/C=C/c1ccc2ccccc2c1)c1c(O)ccc2ccccc12 [C35],67 ± 3,44 ± 6,inhibition at 10 µM (FhCL3 [6]): > 50%; inhibition at 10 µM (FhCL1 [1]): > 50%
"O=c1c(O)c(-c2ccc(O)c(O)c2)oc2cc(O)cc(O)c12 [C40, Quercetin]",,,inhibition at 10 µM (FhCL1 [4]): 15 ± 8%; inhibition at 10 µM (FhCL3 [5]): 8 ± 1%

# Now from value to molecule, other results behind:
inhibition at 10 µM (FhCL1 [2]) [%],inhibition at 10 µM (FhCL3 [3]) [%],SMILES,further results
38 ± 3,39 ± 5,O=C(/C=C/c1cccc2ccccc12)c1ccccc1 [C28],
61 ± 2,41 ± 5,O=C(/C=C/c1ccc2ccccc2c1)c1ccccc1O [C31],
42 ± 6,32 ± 8,O=C(/C=C/c1cccc2ccccc12)c1ccccc1O [C32],
65 ± 6,29 ± 5,O=C(/C=C/c1ccc2ccccc2c1)c1ccc2ccccc2c1O [C33],
5 ± 1,8 ± 4,O=c1cc(-c2ccccc2)oc2ccccc12 [C36],
0,17 ± 1,O=c1cc(-c2ccc(Cl)cc2)oc2ccccc12 [C37],
21 ± 10,19 ± 3,O=c1cc(-c2ccc(Br)cc2)oc2ccccc12 [C38],
20 ± 7,0,COc1ccc(-c2cc(=O)c3ccccc3o2)cc1 [C39],
